Laboratory results taken from paper PMC8500922 (Structure (London, England : 1993), 2021).

Columns and labels:
[1] = biological target: hNatB (Homo sapiens, UniProt P61599); assay: […] acetyltransferase assay with and without IP6; type: biochemical; conditions: 2 μM IP6, 50 μM Ac-CoA, 50 μM MDVF peptide, pH 7.0, room temperature
[2] = biological target: T1, SpNatA (Schizosaccharomyces pombe, UniProt O74985+Q9UTI3); assay: […] acetyltransferase assay with and without IP6; type: biochemical; conditions: 2 μM IP6, 50 μM Ac-CoA, 50 μM SASE peptide, pH 7.0, room temperature
T1 sequence (Q9UTI3 1-156): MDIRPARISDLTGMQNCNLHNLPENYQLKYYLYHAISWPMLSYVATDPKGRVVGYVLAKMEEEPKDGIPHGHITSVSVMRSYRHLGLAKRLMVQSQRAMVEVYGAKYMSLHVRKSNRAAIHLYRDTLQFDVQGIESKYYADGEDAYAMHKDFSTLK
T1 sequence (O74985 1-729): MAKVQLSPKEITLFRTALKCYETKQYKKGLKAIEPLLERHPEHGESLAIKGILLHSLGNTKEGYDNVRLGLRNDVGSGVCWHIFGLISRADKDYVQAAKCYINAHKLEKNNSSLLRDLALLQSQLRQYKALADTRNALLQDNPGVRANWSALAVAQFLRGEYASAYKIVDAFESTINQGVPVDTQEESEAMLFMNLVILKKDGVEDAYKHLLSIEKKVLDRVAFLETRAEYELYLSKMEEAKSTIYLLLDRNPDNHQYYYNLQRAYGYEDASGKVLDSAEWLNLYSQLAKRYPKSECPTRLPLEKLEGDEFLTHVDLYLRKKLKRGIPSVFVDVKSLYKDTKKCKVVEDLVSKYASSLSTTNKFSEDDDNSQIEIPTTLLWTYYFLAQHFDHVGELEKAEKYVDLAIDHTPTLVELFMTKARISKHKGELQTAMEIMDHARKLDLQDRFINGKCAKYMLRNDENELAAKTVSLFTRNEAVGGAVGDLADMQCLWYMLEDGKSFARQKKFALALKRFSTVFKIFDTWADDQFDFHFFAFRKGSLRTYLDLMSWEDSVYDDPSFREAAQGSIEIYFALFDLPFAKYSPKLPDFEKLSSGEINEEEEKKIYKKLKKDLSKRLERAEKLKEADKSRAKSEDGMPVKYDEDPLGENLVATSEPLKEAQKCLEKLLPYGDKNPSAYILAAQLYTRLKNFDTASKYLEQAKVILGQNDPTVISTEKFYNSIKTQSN

[3] = biological target: T2, ternary SpNatC (Schizosaccharomyces pombe, UniProt O74311+Q9USY3); assay: isothermal titration calorimetry; type: binding
T2 sequence (O74311 1-150): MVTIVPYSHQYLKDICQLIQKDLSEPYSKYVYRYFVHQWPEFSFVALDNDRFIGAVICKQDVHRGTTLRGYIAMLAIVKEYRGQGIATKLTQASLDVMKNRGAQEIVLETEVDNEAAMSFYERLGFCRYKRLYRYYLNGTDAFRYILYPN
T2 sequence (Q9USY3 31-708): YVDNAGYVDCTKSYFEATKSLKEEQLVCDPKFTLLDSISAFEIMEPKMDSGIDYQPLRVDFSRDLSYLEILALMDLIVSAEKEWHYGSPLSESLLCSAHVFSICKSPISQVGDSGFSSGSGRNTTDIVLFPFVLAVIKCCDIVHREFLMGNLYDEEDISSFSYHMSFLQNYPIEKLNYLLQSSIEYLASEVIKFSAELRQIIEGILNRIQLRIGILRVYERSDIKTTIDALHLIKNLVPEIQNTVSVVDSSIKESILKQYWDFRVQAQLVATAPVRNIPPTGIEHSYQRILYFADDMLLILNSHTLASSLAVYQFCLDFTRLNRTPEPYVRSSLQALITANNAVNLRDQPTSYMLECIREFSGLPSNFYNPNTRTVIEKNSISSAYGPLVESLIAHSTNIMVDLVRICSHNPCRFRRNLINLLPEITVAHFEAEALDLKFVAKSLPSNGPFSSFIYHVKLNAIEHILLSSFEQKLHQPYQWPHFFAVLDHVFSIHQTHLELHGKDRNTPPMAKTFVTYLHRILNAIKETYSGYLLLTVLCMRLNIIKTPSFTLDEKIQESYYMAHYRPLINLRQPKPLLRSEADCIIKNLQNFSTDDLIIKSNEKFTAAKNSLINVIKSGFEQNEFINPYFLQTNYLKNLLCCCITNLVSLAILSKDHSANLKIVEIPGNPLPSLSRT
T2 sequence (O43080 4-72 partner limits assumed): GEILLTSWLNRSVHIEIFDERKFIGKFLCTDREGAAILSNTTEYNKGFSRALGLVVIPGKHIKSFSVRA

hNatB, sequence (P61599 1-163): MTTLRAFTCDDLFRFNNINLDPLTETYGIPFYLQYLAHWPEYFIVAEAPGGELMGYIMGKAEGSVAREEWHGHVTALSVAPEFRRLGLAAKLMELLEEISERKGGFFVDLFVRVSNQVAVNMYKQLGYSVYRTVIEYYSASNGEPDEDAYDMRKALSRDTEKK
hNatB, sequence (Q14CX7 whole entry partner): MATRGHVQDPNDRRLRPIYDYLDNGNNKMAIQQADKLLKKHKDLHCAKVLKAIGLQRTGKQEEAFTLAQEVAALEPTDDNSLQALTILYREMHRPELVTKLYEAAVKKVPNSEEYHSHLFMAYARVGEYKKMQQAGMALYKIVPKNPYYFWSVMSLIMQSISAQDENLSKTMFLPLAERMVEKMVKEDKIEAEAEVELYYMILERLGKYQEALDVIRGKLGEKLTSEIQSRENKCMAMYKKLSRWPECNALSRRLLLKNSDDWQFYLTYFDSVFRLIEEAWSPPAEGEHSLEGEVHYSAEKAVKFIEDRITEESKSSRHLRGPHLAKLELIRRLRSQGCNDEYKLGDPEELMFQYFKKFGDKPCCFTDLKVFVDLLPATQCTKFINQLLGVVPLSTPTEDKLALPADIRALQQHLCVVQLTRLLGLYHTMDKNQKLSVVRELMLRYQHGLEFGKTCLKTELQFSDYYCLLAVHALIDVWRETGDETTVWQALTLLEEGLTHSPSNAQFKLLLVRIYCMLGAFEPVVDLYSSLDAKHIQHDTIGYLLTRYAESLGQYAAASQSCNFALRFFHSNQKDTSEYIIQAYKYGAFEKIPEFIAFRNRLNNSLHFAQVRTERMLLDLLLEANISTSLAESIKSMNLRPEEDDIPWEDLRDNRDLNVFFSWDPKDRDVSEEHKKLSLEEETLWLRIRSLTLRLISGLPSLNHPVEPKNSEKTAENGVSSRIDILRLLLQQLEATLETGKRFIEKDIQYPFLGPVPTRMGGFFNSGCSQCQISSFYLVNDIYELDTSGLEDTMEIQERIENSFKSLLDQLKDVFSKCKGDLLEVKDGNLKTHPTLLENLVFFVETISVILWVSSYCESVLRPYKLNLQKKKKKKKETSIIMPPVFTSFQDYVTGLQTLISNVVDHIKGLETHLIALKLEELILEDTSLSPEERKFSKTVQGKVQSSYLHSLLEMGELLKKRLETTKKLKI

## O=P(O)(O)O[C@H]1[C@H](OP(=O)(O)O)[C@@H](OP(=O)(O)O)[C@H](OP(=O)(O)O)[C@@H](OP(=O)(O)O)[C@H]1OP(=O)(O)O [IP6, inositol hexaphosphate]
[1]
  modest inhibition at 2 μM: produced a relatively modest inhibitory effect, as it also did for SpNatA and hNatB
[2]
  modest inhibition at 2 μM: produced a relatively modest inhibitory effect, as it also did for SpNatA and hNatB
[3]
  Kd: ~225 nM
